This is an account of results in patent US12102634B2, “Use of berbamine or its analogue for preventing or treating RNA virus infection” (City University of Hong Kong, priority 2019, dated 2024).

In assay [1] the test system is JEV. Put plainly: High-content image assay (DsRNA immunostaining), JEV infection of A549 cells. To be noted: for JEV infection in A549 host cells (relative infectivity, FIG. 8A): 13 compounds from virtual screening; for entry of JEV into the host cells (FIG. 8B): A549 cells; for entry of JEV into the host cells (FIG. 8B) / JEV infection of host cells: about 50 MOI JEV; for JEV infection of host cells: A549 cells pretreated 1 h.

Assay [2] deals with JEV. Put plainly: Western blot of JEV envelope protein in A549 cells. To be noted: dose dependent. In general terms: A western blot detects proteins with antibodies after separation by electrophoresis.
Assay [3] deals with ZIKV. Put plainly: Viral positive RNA strand hybridization in host cells treated with calcium chelator. Format: cell-based, Zika virus.
The next assay relates to TRPMLs. Put plainly: ML-SA1-induced cytosolic Ca2+ increase in Fura-2-loaded HeLa cells. Type of assay: cell-based. To be noted: 25 μM. The method, then: HeLa cells were grown in 24-well plates to ˜80% confluency. The cells were then loaded with HBSS (Gibco, 14025092) containing 4 μM Fura-2 AM (Invitrogen, F1221) and 0.4% Pluronic™ F-127 (Invitrogen, P3000MP) at room temperature for 30 min. The cells were then washed with Ca^2+-free HBSS containing 2 mM EGTA and incubated in Ca^2+-free HBSS in the presence or absence of berbamine (10 μM) at room temperature for another 30 min. Fluorescence images were acquired at 3 s intervals by alternate excitation at 340 nm and 380 nm with emission at 510 nm using a Nikon Eclipse Ti-S Calcium imaging system. Approximately 1 min after live cell imaging, 200 μM GPN (Abcam, ab145914) or 25 μM ML-SA1 (Tocris Bioscience, 4746) was added to the cells to trigger Ca2+ release from the lysosomes.

Assay [4] deals with ZIKV. Put plainly: High-content image assay, ZIKV infection of JEG-3 cells. Conditions: JEG-3 cells pretreated 1 h, about 50 MOI, 18 h.
The subject of assay [5] is JEV. Put plainly: Western blot of JEV-NS1 expression in JEV-infected A549 cells. To be noted: A549 cells pretreated 1 h.
The test system of assay [6] is ZIKV. Put plainly: Western blot of ZIKV-E expression in ZIKV-infected A549 cells. Conditions: A549 cells pretreated 1 h.
Assay [7] relates to JEV. Put plainly: High-content image assay, JEV infection of JEG-3 cells. Conditions: JEG-3 cells pretreated 1 h, about 50 MOI, 18 h.
For assay [8], the system named is ZIKV. Put plainly: High-content image assay (DsRNA immunostaining), ZIKV infection of A549 cells. To be noted: A549 cells pretreated 1 h, about 50 MOI ZIKV.
In the next assay the test system is DENV-2. Put plainly: DsRNA immunostaining, DENV-2 infection of A549 cells. To be noted: pretreated 1 h, about 10 MOI DENV-2, dose dependent.

For the compound `COc1cccc(C(=O)CC2c3c(cc4c(c3OC)OCO4)CCN2C)c1` (stereo not shown) [Compound #11], in the assay on JEV [1], the “JEV infection in A549 host cells (relative infectivity, FIG. 8A)” value is listed as “highest potency” and the “entry of JEV into the host cells (FIG. 8B)” value (“entry” below) is recorded as “effectively block”.
With `COc1cc2c(cc1OC)C(C)N(C(=O)c1ccc(Br)cc1)CC2` (stereo not shown) [Compound #7], in the assay with JEV [1], the “JEV infection in A549 host cells (relative infectivity, FIG. 8A)” value is on record as “highest potency” and the “entry” value is reported as “effectively block”.
As for `CC(=O)OCOC(=O)CN(CC(=O)OCOC(C)=O)c1ccccc1OCCOc1ccccc1N(CC(=O)OCOC(C)=O)CC(=O)OCOC(C)=O` [BAPTA-AM], the “expression of JEV envelope protein” value in the assay with JEV [2] is on record as “markedly inhibited”. The “viral positive RNA strand inside host cells” value with ZIKV [3] is recorded as “no ZIKV positive RNA strand was spotted”.
In the case of `CC1CC(C)(C)N(C(=O)CN2C(=O)c3ccccc3C2=O)c2ccccc21` (stereo not shown) [ML-SA1, reference compound], in the assay on TRPMLs, the “cytosolic Ca2+ levels (agonist effect)” value is given as “markedly increased”.
For `COc1cc(C(=O)N2c3ccccc3CCC2C)cc(OC)c1OC` (stereo not shown) [Compound #1], in the assay on JEV [1], the “JEV infection in A549 host cells (relative infectivity, FIG. 8A)” value is given as “highest potency” and the “entry” value was “effectively block”.
Regarding `COc1cc2c3cc1Oc1c(OC)c(OC)cc4c1[C@@H](Cc1ccc(OC(=O)c5ccc([N+](=O)[O-])cc5)c(c1)Oc1ccc(cc1)C[C@@H]3N(C)CC2)N(C)CC4` [E6 berbamine], the “ZIKV infection in JEG-3 cells” value in the assay on ZIKV [4] was “significantly inhibited”. In the assay on JEV [5], the “protein expression of JEV-NS1” value was “strong inhibition”. Besides, in the assay with ZIKV [6], the “protein expression of ZIKV-E” value is “strong inhibition”. For the same compound, the “JEV infection in JEG-3 cells” value in the assay with JEV [7] is recorded as “significantly inhibited”.
Regarding `COc1ccc2cc1Oc1ccc(cc1)C[C@H]1c3cc(c(OC)cc3CCN1C)Oc1c(O)c(OC)cc3c1[C@H](C2)N(C)CC3` [fangchinoline], the “ZIKV infection in JEG-3 cells” value with ZIKV [4] was “significantly inhibited”. In addition, in the assay with ZIKV [8], the “ZIKV infection of host cells” value is reported as “significantly inhibited”. For the same compound, the “JEV infection in JEG-3 cells” value in the assay on JEV [7] is reported as “significantly inhibited”. The “JEV infection of host cells” value in the assay with JEV [1] is on record as “significantly inhibited”. The “DENV-2 infection in A549 cells” value in the assay on DENV-2 was “significantly inhibit”.
For the compound `COc1ccc2cc1Oc1ccc(cc1)C[C@H]1c3cc(c(OC)cc3CCN1C)Oc1c(OC)c(OC)cc3c1[C@@H](C2)N(C)CC3` [isotetrandrine], the “ZIKV infection in JEG-3 cells” value in the assay on ZIKV [4] is recorded as “significantly inhibited”. In the assay on ZIKV [8], the “ZIKV infection of host cells” value is recorded as “significantly inhibited”. Moreover, the “JEV infection in JEG-3 cells” value with JEV [7] is “significantly inhibited”. Moreover, the “JEV infection of host cells” value in the assay with JEV [1] was “significantly inhibited”. Moreover, in the assay on DENV-2, the “DENV-2 infection in A549 cells” value is “significantly inhibit”.
For `COc1cc2c(cc1OC)C(c1cc(OC)c(OC)c(OC)c1)OCC2` (stereo not shown) [Compound #9], in the assay on JEV [1], the “JEV infection in A549 host cells (relative infectivity, FIG. 8A)” value is “highest potency” and the “entry” value is “effectively block”.
